From the supplement of paper PMC10307832

Key:
Assay in all cases: relative viability (nuclei count vs DMSO), 5 days (fraction); higher = more cells survive
[1] = test system: 201T
In short: (§1)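 Cells from lung cancer lines were seeded into 1536-well plates and, one day later, dosed by pin tool. Treatments were either a single drug or a fixed dose of an anchor drug with five library-drug doses (not always all listed) in √10 steps. After 5 days, nuclei were stained in a one-step fixation (final 0.05% Triton X-100, 1% formaldehyde, 1 ug/ml Hoechst) and counted on 4× images, and relative viability is the treated-to-vehicle nuclei ratio, as the median of duplicate plates.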

[2] = test system: ABC-1
In short: as §1

[3] = test system: COR-L23
In short: as §1

[4] = test system: EKVX
In short: as §1

[5] = test system: EPLC-272H
In short: as §1

[6] = test system: HCC-44
In short: as §1

[7] = test system: LOU-NH91
In short: as §1

[8] = test system: NCI-H1650
In short: as §1

[9] = test system: NCI-H1734
In short: as §1

[10] = test system: NCI-H1793
In short: as §1

[11] = test system: NCI-H1993
In short: as §1

[12] = test system: NCI-H2023
In short: as §1

[13] = test system: NCI-H2085
In short: as §1

[14] = test system: NCI-H2170
In short: as §1

[15] = test system: NCI-H2347
In short: as §1

[16] = test system: NCI-H2405
In short: as §1

[17] = test system: NCI-H3122
In short: as §1

[18] = test system: NCI-H441
In short: as §1

[19] = test system: NCI-H520
In short: as §1

[20] = test system: NCI-H647
In short: as §1

[21] = test system: PC-14
In short: as §1

[22] = test system: RERF-LC-KJ
In short: as §1

[23] = test system: SW 900
In short: as §1

COc1cc(N2CCC(C(N)=O)CC2)ccc1Nc1nc(N)c(Cl)c(Nc2ccccc2S(=O)(=O)C(C)C)n1 [HG-5-88-01] + Cc1cc(Nc2cc(N3CCN(C)CC3)nc(Sc3ccc(NC(=O)C4CC4)cc3)n2)n[nH]1 [Tozasertib] (partner 0.1 µM)
relative viability ([1]; first compound 0.04 µM): 0.963
relative viability ([1]; first compound 0.1265 µM): 0.903
relative viability ([1]; first compound 0.4 µM): 0.939
relative viability ([1]; first compound 1.265 µM): 0.871
relative viability ([1]; first compound 4 µM): 0.911
relative viability ([2]; first compound 0.04 µM): 0.15
relative viability ([2]; first compound 0.1265 µM): 0.204
relative viability ([2]; first compound 0.4 µM): 0.172
relative viability ([2]; first compound 1.265 µM): 0.154
relative viability ([2]; first compound 4 µM): 0.179
relative viability ([3]; first compound 0.04 µM): 0.202
relative viability ([3]; first compound 0.1265 µM): 0.196
relative viability ([3]; first compound 0.4 µM): 0.168
relative viability ([3]; first compound 1.265 µM): 0.165
relative viability ([3]; first compound 4 µM): 0.109
relative viability ([4]; first compound 0.04 µM): 0.356
relative viability ([4]; first compound 0.1265 µM): 0.396
relative viability ([4]; first compound 0.4 µM): 0.374
relative viability ([4]; first compound 4 µM): 0.286
relative viability ([5]; first compound 0.04 µM): 0.257
relative viability ([5]; first compound 0.1265 µM): 0.301
relative viability ([5]; first compound 0.4 µM): 0.323
relative viability ([5]; first compound 1.265 µM): 0.141
relative viability ([5]; first compound 4 µM): 0.063
relative viability ([6]; first compound 0.04 µM): 1.1
relative viability ([6]; first compound 0.1265 µM): 0.928
relative viability ([6]; first compound 0.4 µM): 0.745
relative viability ([6]; first compound 1.265 µM): 0.328
relative viability ([6]; first compound 4 µM): 0.14
relative viability ([7]; first compound 0.04 µM): 0.657
relative viability ([7]; first compound 0.1265 µM): 0.614
relative viability ([7]; first compound 0.4 µM): 0.513
relative viability ([7]; first compound 1.265 µM): 0.376
relative viability ([7]; first compound 4 µM): 0.366
relative viability ([8]; first compound 0.04 µM): 0.428
relative viability ([8]; first compound 0.1265 µM): 0.396
relative viability ([8]; first compound 0.4 µM): 0.346
relative viability ([8]; first compound 1.265 µM): 0.174
relative viability ([8]; first compound 4 µM): 0.227
relative viability ([9]; first compound 0.04 µM): 0.267
relative viability ([9]; first compound 0.1265 µM): 0.235
relative viability ([9]; first compound 0.4 µM): 0.225
relative viability ([9]; first compound 1.265 µM): 0.243
relative viability ([9]; first compound 4 µM): 0.27
relative viability ([10]; first compound 0.1265 µM): 0.313
relative viability ([10]; first compound 0.4 µM): 0.293
relative viability ([10]; first compound 4 µM): 0.216
relative viability ([11]; first compound 0.04 µM): 0.607
relative viability ([11]; first compound 0.1265 µM): 0.635
relative viability ([11]; first compound 0.4 µM): 0.595
relative viability ([11]; first compound 1.265 µM): 0.556
relative viability ([11]; first compound 4 µM): 0.535
relative viability ([12]; first compound 0.04 µM): 0.35
relative viability ([12]; first compound 0.1265 µM): 0.362
relative viability ([12]; first compound 0.4 µM): 0.262
relative viability ([12]; first compound 1.265 µM): 0.108
relative viability ([12]; first compound 4 µM): 0.107
relative viability ([13]; first compound 0.04 µM): 0.805
relative viability ([13]; first compound 0.1265 µM): 0.784
relative viability ([13]; first compound 0.4 µM): 0.776
relative viability ([13]; first compound 1.265 µM): 0.696
relative viability ([13]; first compound 4 µM): 0.391
relative viability ([14]; first compound 0.04 µM): 0.768
relative viability ([14]; first compound 0.1265 µM): 0.67
relative viability ([14]; first compound 0.4 µM): 0.678
relative viability ([14]; first compound 1.265 µM): 0.464
relative viability ([14]; first compound 4 µM): 0.635
relative viability ([15]; first compound 0.04 µM): 0.638
relative viability ([15]; first compound 0.1265 µM): 0.563
relative viability ([15]; first compound 0.4 µM): 0.743
relative viability ([15]; first compound 1.265 µM): 0.392
relative viability ([15]; first compound 4 µM): 0.398
relative viability ([16]; first compound 0.04 µM): 0.765
relative viability ([16]; first compound 0.1265 µM): 0.704
relative viability ([16]; first compound 0.4 µM): 0.659
relative viability ([16]; first compound 1.265 µM): 0.395
relative viability ([16]; first compound 4 µM): 0.416
relative viability ([17]; first compound 0.04 µM): 0.221
relative viability ([17]; first compound 0.1265 µM): 0.146
relative viability ([17]; first compound 0.4 µM): 0.08
relative viability ([17]; first compound 1.265 µM): 0.112
relative viability ([17]; first compound 4 µM): 0.0832
relative viability ([18]; first compound 0.04 µM): 0.696
relative viability ([18]; first compound 0.1265 µM): 0.632
relative viability ([18]; first compound 0.4 µM): 0.638
relative viability ([18]; first compound 1.265 µM): 0.422
relative viability ([18]; first compound 4 µM): 0.332
relative viability ([19]; first compound 0.04 µM): 0.457
relative viability ([19]; first compound 0.1265 µM): 0.433
relative viability ([19]; first compound 0.4 µM): 0.435
relative viability ([19]; first compound 1.265 µM): 0.414
relative viability ([19]; first compound 4 µM): 0.452
relative viability ([20]; first compound 0.04 µM): 0.236
relative viability ([20]; first compound 0.1265 µM): 0.403
relative viability ([20]; first compound 0.4 µM): 0.309
relative viability ([20]; first compound 1.265 µM): 0.203
relative viability ([20]; first compound 4 µM): 0.216
relative viability ([21]; first compound 0.04 µM): 0.617
relative viability ([21]; first compound 0.1265 µM): 0.645
relative viability ([21]; first compound 0.4 µM): 0.602
relative viability ([21]; first compound 1.265 µM): 0.228
relative viability ([21]; first compound 4 µM): 0.257
relative viability ([22]; first compound 0.04 µM): 0.58
relative viability ([22]; first compound 0.1265 µM): 0.509
relative viability ([22]; first compound 0.4 µM): 0.436
relative viability ([22]; first compound 1.265 µM): 0.373
relative viability ([22]; first compound 4 µM): 0.174
relative viability ([23]; first compound 0.04 µM): 0.533
relative viability ([23]; first compound 0.1265 µM): 0.656
relative viability ([23]; first compound 0.4 µM): 0.652
relative viability ([23]; first compound 1.265 µM): 0.417
relative viability ([23]; first compound 4 µM): 0.268
